The test system of the assay is 636577-100-R-J1-PDC complex spheroid viability. Nature of the assay: Anticancer human tumor 636577-100-R-J1-PDC patient-derived endometrial adenocarcinoma cell line growth inhibition [GQUAD]. The note with it: for viability, T/C: stronger effect = lower value. The source says: DNA G-quadruplex Stabilizer Agents in Combinations in Complex Spheroids
A high-throughput screen of multi-cell type tumor spheroids was designed to identify active combinations of DNA G-quadruplex stabilizer agents and targeted small molecules. Complex spheroids include a stromal component modeled by human endothelial cells (HUVEC) and fibroblasts modeled by human mesenchymal stem cells (MSCs). The concentration ranges selected for each drug and investigational agent were based upon clinically achievable concentrations if the clinical Cmax of the agent was known.
Compounds. The drugs and investigational agents: pidnarulex (CX-5461; NSC782164), APTO-253 (NSC789042), BRACO-19 (NSC847499), peposertib (NSC802822), ceralasertib (NSC780249), elimusertib (NSC800525), camonsertib (NSC841442), AZD-1390 (NSC803789), olaparib (NSC753686), talazoparib (NSC767125), ART-558 (NSC835418), sotorasib (NSC818433), MRTX-1133 (NSC836407), SN-38 (NSC673596), topotecan (NSC609699), etoposide (NSC141540), doxorubicin (NSC123127), gemcitabine (NSC613327), 5-fluorouracil (NSC19893), paclitaxel (NSC125973), vemurafenib (NSC761431), panobinostat (NSC761190), R-306465 (JNJ-16241199; NSC773264), adavosertib (NSC754352), TP-3654 (NSC805149), carboplatin (NSC241240), KSQ-4279 (NSC840948), and staurosporine (NSC755774) were obtained from the National Cancer Institute (NCI) Developmental Therapeutics Program Chemical Repository (34). The FDA-approved anticancer drug set is available from the NCI Developmental Therapeutics Program. […] The stock solutions were prepared in dimethyl sulfoxide (DMSO, Sigma-Aldrich, St. Louis, MO, cat. D2650) at 800-fold the tested concentration and stored at -70 degrees C prior to their use. All drugs and investigational agents were tested over a range starting from a high concentration at or near the clinical Cmax and decreasing in half-log increments. If the clinical Cmax for an agent had not been determined, the highest concentration tested was 10 microM.
2.3 Cell Culture. All cells were maintained in an incubator at 37 degrees C and 5% CO2 with 95% humidity. The PDC lines were cultured according to standard operating procedures established by the NCI PDMR. All PDCs were thawed and cultured in Matrigel-coated flasks prepared with a working solution of 1X Ham's F-12 nutrient mix, without supplementation (Invitrogen, cat. 11765054), 100 U/mL penicillin-streptomycin (Invitrogen, cat. 15140122), and 2.5% Matrigel (Corning Inc., cat. 354248) for the first three passages. The 857933-349-R-J2-PDC line was cultured in 6C/Colon 1B media, which includes advanced DMEM/F-12 (Thermo Fisher Scientific, cat. 12634028), 10 mM HEPES (Thermo Fisher Scientific, cat. 15630080), 1X GlutaMAX supplement (Thermo Fisher Scientific, cat. 35050061), 0.1 mg/mL primocin (InvivoGen, cat. ant-pm-2), 10% defined fetal bovine serum, heat inactivated (HyClone Laboratories Inc., cat. SH30070.03HI), 50% L-WRN conditioned media (ATCC, cat. CRL-3276), 1.25 mM N-Acetyl-L-cysteine (Sigma-Aldrich, cat. A9165), 10 mM nicotinamide (Sigma-Aldrich, cat. N0636), 1X B-27 supplement (Thermo Fisher Scientific, cat. 17504044), 1X N-2 supplement (Thermo Fisher Scientific, cat. 17502048), 10 microM Y-27632 dihydrochloride (Tocris Bioscience, cat. 1254), and 50 ng/mL human EGF recombinant protein (Thermo Fisher Scientific, cat. PHG0311). The 485176-168-R4-J1-PDC line was cultured in Panc media, which includes all 6C/Colon 1B media components plus 100 ng/mL human FGF-10 (Thermo Fisher Scientific, cat. 100-26), 500 nM SB-431542 (Selleckchem, cat. S1067), and gastrin (Tocris, cat. 3006).
[…]

The structures appear in SMILES notation. “And” between values parts separate entries of the source, which are not always exact repeats. Equal values may be shown once. A value given as a limit tells only on which side of the number the result lay.

As usually defined, the viability, T/C is the result in the treated group divided by that in the control group, in per cent. One may read the IC50 as the concentration that gives 50% inhibition.
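Further: viability read after seven days of drug exposure.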
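Wherever viability, T/C is given: luminescence signal used as a proxy for viable cells; 100% = DMSO vehicle control wells.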

With `COc1ccc([C@@H](O)c2cc(-c3ncnc4cc(N5CCOCC5)ccc34)c(F)cc2Cl)nn1`, the viability, T/C by setting is: (compound 0.0316 µM) 93% and 95.4% and 33.8%; (compound 0.1 µM) 96.2% and 61.9% and 97.4%; (compound 0.316 µM) 86.4% and 88.9% and 65.4%; (compound 1 µM) 55.2% and 54.6% and 49.7%; (compound 3.16 µM) 42.5% and 43.1% and 36.6%; (compound 10 µM) 28.1% and 22.5% and 25.5%. The IC50 (curve of compound) was 1580 nM and 1970 nM and 1170 nM.
Regarding `Cn1ncnc1[C@H]1c2n[nH]c(=O)c3cc(F)cc(c23)N[C@@H]1c1ccc(F)cc1`, the viability, T/C (compound 0.000999 µM) was 116% and 71.8% and 77.3%; the viability, T/C (compound 0.00316 µM) was 99% and 81.1% and 72.7%; the viability, T/C (compound 0.00999 µM) was 94.9% and 91.4% and 85.6%; the viability, T/C (compound 0.0316 µM) is 69.3% and 56% and 68.8%; the viability, T/C (compound 0.0999 µM) is 44.9% and 52.2% and 43.4%; the viability, T/C (compound 0.316 µM) was 29.7% and 35.6% and 29.1%. In addition, the 50% inhibitory concentration (IC50) (curve of compound) is 83.4 nM and 55.7 nM and 74.1 nM.
As for `O=C(c1cc(Cc2n[nH]c(=O)c3ccccc23)ccc1F)N1CCN(C(=O)C2CC2)CC1`, the viability, T/C is 91.1% and 68.5% (compound 0.0316 µM); 89.5% and 65.9% (compound 0.1 µM); 96.8% and 82.5% (compound 0.316 µM); 62.5% and 63.3% (compound 1 µM); 56.2% and 45.9% (compound 3.16 µM); 37.6% and 29% (compound 10 µM). Moreover, the IC50 (curve of compound) was 2510 nM and 2430 nM.
In the case of `CC(C)n1c(=O)n(C)c2cnc3cc(F)c(-c4ccc(OCCCN5CCCCC5)nc4)cc3c21`, the viability, T/C is 72.8% and 108% (compound 0.0316 µM); 97.3% and 87.1% (compound 0.1 µM); 90.1% and 107% (compound 0.316 µM); 56.6% and 102% (compound 1 µM); 57.8% and 80.4% (compound 3.16 µM); 53.7% and 49% (compound 10 µM). Moreover, where the note is “curve of compound”, the IC50 was > 10000 nM and 9660 nM.
Take `Cc1[nH]c2ccccc2c1CCNCc1ccc(/C=C/C(=O)NO)cc1` + Cc1[nH]c2ccc(F)cc2c1-c1nc2c3cccnc3c3ncccc3c2[nH]1: the IC50 by setting is: (curve of first compound, second compound 0.0316 µM) 3.82 nM; (curve of first compound, second compound 0.1 µM) 4.27 nM; (curve of first compound, second compound 0.316 µM) 2.57 nM; (curve of first compound, second compound 1 µM) 4.08 nM; (curve of first compound, second compound 3.16 µM) less than 0.999 nM; (curve of first compound, second compound 10 µM) less than 0.999 nM. Further, the viability, T/C is 85.4% (second compound 0.0316 µM, first compound 0.000999 µM); 50.4% (second compound 0.0316 µM, first compound 0.00316 µM); 37.9% (second compound 0.0316 µM, first compound 0.00999 µM); 17.2% (second compound 0.0316 µM, first compound 0.0316 µM); 8.47% (second compound 0.0316 µM, first compound 0.0999 µM); 10.2% (second compound 0.0316 µM, first compound 0.316 µM). Besides, the viability, T/C reads like this: (second compound 0.1 µM, first compound 0.000999 µM) 76.9%; (second compound 0.1 µM, first compound 0.00316 µM) 50.8%; (second compound 0.1 µM, first compound 0.00999 µM) 41.8%; (second compound 0.1 µM, first compound 0.0316 µM) 14.9%; (second compound 0.1 µM, first compound 0.0999 µM) 7.94%; (second compound 0.1 µM, first compound 0.316 µM) 12.1%. The viability, T/C is, setting by setting: (second compound 0.316 µM, first compound 0.000999 µM) 80.3%; (second compound 0.316 µM, first compound 0.00316 µM) 37.7%; (second compound 0.316 µM, first compound 0.00999 µM) 32.9%; (second compound 0.316 µM, first compound 0.0316 µM) 16.5%; (second compound 0.316 µM, first compound 0.0999 µM) 7.47%; (second compound 0.316 µM, first compound 0.316 µM) 10.4%. Also, the viability, T/C is 51.6% (second compound 1 µM, first compound 0.000999 µM); 59.6% (second compound 1 µM, first compound 0.00316 µM); 30.3% (second compound 1 µM, first compound 0.00999 µM); 15.5% (second compound 1 µM, first compound 0.0316 µM); 9.36% (second compound 1 µM, first compound 0.0999 µM); 8.79% (second compound 1 µM, first compound 0.316 µM). In addition, the viability, T/C is, setting by setting: (second compound 3.16 µM, first compound 0.000999 µM) 23.2%; (second compound 3.16 µM, first compound 0.00316 µM) 27.4%; (second compound 3.16 µM, first compound 0.00999 µM) 23.9%; (second compound 3.16 µM, first compound 0.0316 µM) 17.2%; (second compound 3.16 µM, first compound 0.0999 µM) 9.73%; (second compound 3.16 µM, first compound 0.316 µM) 7.69%. Moreover, the viability, T/C (second compound 10 µM, first compound 0.000999 µM) is 32.9%; the viability, T/C (second compound 10 µM, first compound 0.00316 µM) was 34%; the viability, T/C (second compound 10 µM, first compound 0.00999 µM) is 23.1%; the viability, T/C (second compound 10 µM, first compound 0.0316 µM) is 13.5%; the viability, T/C (second compound 10 µM, first compound 0.0999 µM) is 9.1%; the viability, T/C (second compound 10 µM, first compound 0.316 µM) is 10.7%.
With `COc1cc(C2c3cc4c(cc3C(OC3OC5COC(C)OC5C(O)C3O)C3COC(=O)C23)OCO4)cc(OC)c1O` (stereo unspecified), the viability, T/C is 80.7% and 81.6% and 73.5% (compound 0.0316 µM); 43.7% and 40.4% and 34.9% (compound 0.1 µM); 24.3% and 21.7% and 21.6% (compound 0.316 µM); 18.6% and 19% and 17.9% (compound 1 µM); 15.4% and 13.9% and 16.5% (compound 3.16 µM); 13% and 12.7% and 13.3% (compound 10 µM). Also, the IC50 (curve of compound) is 81.9 nM and 76.2 nM and 64 nM.
Turning to `COc1cccc2c1C(=O)c1c(O)c3c(c(O)c1C2=O)CC(O)(C(=O)CO)CC3OC1CC(N)C(O)C(C)O1` (stereo unspecified), the viability, T/C runs as follows: (compound 0.0316 µM) 28.9% and 27% and 34.2%; (compound 0.1 µM) 18.4% and 18.1% and 16.8%; (compound 0.316 µM) 15.4% and 13.9% and 14.7%; (compound 1 µM) 7.51% and 9.99% and 11.6%; (compound 3.16 µM) 0.17% and 0.21% and 0.44%; (compound 10 µM) 0.53% and 0.32% and 0.4%. Also, the IC50 (curve of compound) was less than 31.6 nM.
Regarding `CCCS(=O)(=O)Nc1ccc(F)c(C(=O)c2c[nH]c3ncc(-c4ccc(Cl)cc4)cc23)c1F`, the viability, T/C is 98.3% and 98.1% and 104% (compound 0.0316 µM); 89.9% and 103% and 86.1% (compound 0.1 µM); 109% and 84.8% and 76.3% (compound 0.316 µM); 75% and 74.6% and 46.8% (compound 1 µM); 71.8% and 76.7% and 53.5% (compound 3.16 µM); 46.6% and 34.8% and 20.9% (compound 10 µM). In addition, the IC50 (curve of compound) is 8650 nM and 6140 nM and 1700 nM.

(Values after PubChem BioAssay AID2060504 (Molecular Pharmacology Branch, DTP, NCI, 2025).)
